Measurements: patent US20150018418A1, “COMPOSITIONS AND METHODS FOR PROLONGING PREGNANCY” (priority 2013, published 2015)

How the values were obtained:
[1] = test system: preterm labor / premature birth; conditions: cited from earlier work
[2] = test system: pregnant human female in PTL (uterine contractions); conditions: Example 1
Description: A pregnant person, at 29.5 weeks gestation, presented to the hospital in PTL during their first pregnancy. […] The patient's parent experienced PTL during one of their pregnancies, leading to premature birth of the patient at 30 weeks gestation. The patient's sibling also had experienced PTL with one of their pregnancies resulting in premature birth at 36 weeks gestation.
The patient was diagnosed with PTL and started on nifedipine 20 mg by mouth every 6 hours for tocolysis and magnesium sulfate 6 g as an intravenous infusion over 30 minutes followed by 2 g per hour for the next 12 hours for fetal neuroprotection. […] A course of steroids were also given for fetal lung maturation.
The patient then enrolled in a study conducted in advancement of the present disclosure and began therapy with gabapentin 300 mg, 3×/day (900 mg/day total). […] The following day the patient was discharged home only on gabapentin 300 mg, 3×/day and their previous outpatient dose of atenolol at 50 mg a day. […] They were instructed to increased their gabapentin dose to 600 mg, 3×/day.
Gabapentin was not administered while the patient was in the hospital. […] The patient was discharged.
Such contractions are the hallmark of preterm labor, which is known to result in premature birth in 60% of cases.

[3] = Serum half-life and clearance of gabapentin in humans; format: in vivo; conditions: expected from the serum half-life
Description: The patient was discharged.

[4] = test system: pregnant human in PTL (uterine contractions, uterine pressure); assay: Example 2: gabapentin maintenance therapy in a patient with preterm labor (case report); format: in vivo
Description: The cervix was dilated at 3.5-4 cm and regular uterine contractions were occurring at 11/hour. […] The uterine contractions slowly diminished and were completely resolved 14 hours after tocolysis was initiated.
The cervix was still 3.5-4 cm dilated at the time of enrollment. By the evening of the next day, the subject began feeling “uncomfortable” with a “pressure” feeling in their uterus. They were instructed the next day to increase their bedtime gabapentin dose to 600 mg and to continue 300 mg in the morning and in the afternoon. […] Two days later the subject reported feeling some recurrent uterine pressure especially noticeable for the hour before each gabapentin dose was taken. Gabapentin was increased to 600 mg, 3×/day and by the following day all of the pressure symptoms had resolved. The subject remained asymptomatic.
They continued on gabapentin 600 mg, 3×/day and remained asymptomatic. Three days later the subject noticed that their “water broke”. They were admitted to the hospital and confirmed to have preterm premature rupture of membranes (PPROM) with cervix still dilated to 4 cm. Gabapentin was continued at 600 mg, 3×/day. The subject remained asymptomatic throughout the next day; however, on the morning of the following day the subject began having regular uterine contractions about every 3-5 minutes and their cervix had now dilated to 7cm.
This discovery of gabapentin maintenance therapy resolving recurrent uterine contractions and pressure symptoms leading to a prolongation of pregnancy and preserving fetal survival is accordingly highly valuable to the public. Its value can be recognized at least in part because uterine contractions are an essential component of PTL, which precedes 40-50% of premature births (<37 weeks gestation) and as described above, premature birth occurs in 11.5% of all live births in the US, is the number one cause of neonatal mortality, and is responsible for half of the long-term neurological impairments in children. […]

[5] = nifedipine 20 mg by mouth every 6 hours, with i.v. magnesium sulfate for fetal neuroprotection

CC(C)(C)NCC(O)c1cc(O)cc(O)c1 (stereo not shown) [terbutaline]
maintenance tocolysis for prolonging pregnancy ([1]; patients with recent or resolved PTL, versus placebo): no more effective than maintenance placebo therapy

O=S(=O)([O-])[O-].[Mg+2] [magnesium sulfate]
time to resolution of all uterine contractions ([2]; recurrent contractions, intravenous magnesium sulfate infusion 2 g/hour, gabapentin not administered): ≤ 5 h

NCC1(CC(=O)O)CCCCC1 [gabapentin, (1-aminomethyl)cyclohexaneacetic acid]
time to be fully cleared after discontinuation [3]: about 30 hours
uncomfortable pressure feeling in uterus ([4]; bedtime dose increased to 600 mg, 300 mg morning and afternoon, following morning): fully resolved
recurrent uterine pressure symptoms ([4]; gabapentin increased to 600 mg 3x/day, by the following day): resolved
recurrent uterine cramping and uterine contraction feelings ([2]; dose increased from 300 mg to 600 mg 3x/day, after the second 600 mg dose): fully resolved
side effects after the first dose ([2]; gabapentin 300 mg 3x/day, resolved that same day): mild dizziness
side effects from the higher dose ([2]; gabapentin 600 mg 3x/day): did not experience any side effects
time remained stable without any uterine cramping ([2]; gabapentin 600 mg 3x/day): 16 days
outcome after discontinuation of maintenance therapy ([2]; gabapentin discontinued for 8 days): associated with the IUFD
use during pregnancy and premature birth ([1]; Fujii H, et al. Neurology 2013): associated with an increase in premature birth

COC(=O)C1=C(C)NC(C)=C(C(=O)OC)C1c1ccccc1[N+](=O)[O-] [nifedipine]
time to complete resolution of uterine contractions after tocolysis was initiated [4, 5]: 14 h
time to complete resolution of uterine contractions after tocolysis was initiated [2, 5]: 12 h
